Data published in US20250136555A1 (HARBIN MEDISAN PHARMACEUTICAL CO., LTD., priority 2022, published 2025).
Where two headings read alike, the source gives them in different places.

Columns and labels:
[1] = system: non-PPAR nuclear receptors; assay: GAL4 hybrid reporter gene method, non-PPAR nuclear receptors (summary statement); type: cell-based; conditions: 1 μM
Procedure: Reporter gene plasmids for different nuclear receptors were constructed by referring to the method in the literature (Journal of Medicinal Chemistry 2022, 65, 2571-2592). Transfection working solutions for different nuclear receptors were prepared and added into COS-7 cells. The preparation method for the transfection working solution was as follows: the constructed pBIND-Gal4-PPARα (LBD) (or pBIND-Gal4-PPARδ (LBD) plasmid or pBIND-Gal4-PPARγ (LBD) plasmid or pBIND-Gal4-RARα (LBD) plasmid or pBIND-Gal4-RARγ (LBD) plasmid or pBIND-Gal4-RARβ (LBD) plasmid or pBIND-Gal4-RORα (LBD) plasmid or pBIND-Gal4-RORγ (LBD) plasmid or pBIND-Gal4-RORβ (LBD) plasmid or pBIND-Gal4-FXR (LBD) plasmid or pBIND-Gal4-RXRα. (LBD) plasmid or pBIND-Gal4-RXRγ (LBD) plasmid or pBIND-Gal4-RXRβ (LBD) plasmid or pBIND-Gal4-VDR (LBD) plasmid or pBIND-Gal4-LXRα (LBD) plasmid or pBIND-Gal4-LXRβ (LBD) plasmid or pBIND-Gal4-[…] (LBD) plasmid or pBIND-Gal4-PXR (LBD) plasmid or pBIND-Gal4-CAR (LBD) plasmid), 15 μg of pGL4.35-9×Gal4 UAS plasmid (purchased from Promega (Beijing) Biotech Co., Ltd.), and 60 μL of a transfection reagent ([…], purchased from Wuhan ABclonal Biotechnology Co., Ltd.) were added to 2 mL of Opti-MEM, the mixture was left to stand at room temperature for 15 min, and then the working solution was obtained.

NASH model mice = assay: NASH induced by HF-CDAA diet in mice; type: in vivo, C57 mice
[2] = Pharmacokinetic evaluation in rats; type: in vivo, SD rats; conditions: for AUC(0-inf): read-out: Area under the curve AUC(0-∞); for Tmax: read-out: Peak time Tmax
Procedure: Animals: 6 SPF-grade male SD rats were purchased from Beijing Vital River Laboratory Animal Technology Co., Ltd.
Grouping: rats were divided into 2 groups, with 3 rats in each group; one group was an oral administration group, and the other group was an intravenous injection group. The dose in the oral administration group was 10 mpk, and the dose in the intravenous injection group was 2 mpk.
Experimental procedures: after rats in the intravenous injection group were administered by tail vein injection, about 0.25 mL of blood was collected from the orbit at 0.083 h, 0.25 h, 0.5 h, 1 h, 2 h, 4 h, 6 h, 8 h, and 24 h, respectively, and then heparin sodium was rapidly added for anticoagulation after blood collection. The blood was placed on ice after collection. Rats in the oral administration group were fasted for 12 h before administration and fed 4 h after administration. After the rats were administered orally, about 0.25 mL of blood was collected from the orbit at 0.083 h, 0.25 h, 0.5 h, 1 h, 2 h, 4 h, 6 h, 8 h, and 24 h, respectively, and then heparin sodium was rapidly added for anticoagulation after blood collection. The blood was placed on ice after collection. All samples were centrifuged at 6000 r/min for 3 min in a low-temperature centrifuge, and plasma was obtained after separation. The content of the compound in the plasma was detected via LC-MS/MS-18, and relevant pharmacokinetic parameters were calculated according to the plasma concentration data of different time points.

[3] = Metabolic stability in human liver microsomes; type: in vitro ADME
Procedure: A solution of the compound in acetonitrile at a concentration of 500 μM was prepared and diluted in 0.1 M potassium phosphate solution to obtain a 1.5 μM drug working solution. The drug working solution was co-incubated with a human liver microsome working solution at a final concentration of 0.75 mg/mL and a NADPH solution (at a final concentration of 550 μM), and the incubation was terminated by adding an acetonitrile solution at 0 min, 15 min, 30 min, 45 min, and 60 min, respectively. The remaining amount of the compound remained in the system at each time point was detected by using LC/MS, the absolute value k of the slope was measured by plotting the natural logarithm of the percentage of the remaining amount of the compound over time, and the calculation was performed according to the formula: T1/2 (half-life)=ln2/k=0.693/k.

[4] = NASH model mice, 0.1 mg/kg intragastric daily, 2 weeks
[5] = compound 1 0.1 mg/kg vs GFT505 10 mg/kg
[6] = male, SD, rat, plasma, 2 mg/kg, intravenous injection, 2 mpk
[7] = male, SD, rat, plasma, 10 mg/kg, oral administration, 10 mpk
[8] = human liver microsomes 0.75 mg/mL, NADPH

Cc1cc(CN2C(=O)CN(c3ccc(C(F)(F)F)cc3)C2=O)cc(C)c1OC(C)(C)C(=O)O [Compound 1, 2-(4-((2,5-Dioxo-3-(4-(trifluoromethyl)phenyl)imidazolidin-1-yl)methyl)-2,6-dimethylphenoxy)-2-methylpropionic Acid]
agonistic effect on non-PPAR nuclear receptors [1]: no significant agonistic effect
pathological state of NASH mice (conclusion) (NASH model mice; 0.1 mg/kg): significantly improve the pathological state
collagen deposition in liver, sirius red staining (FIG. 8) (NASH model mice; NASH model mice, 0.1 mg/kg): reduce collagen deposition
inflammatory infiltration in hepatic lobules, HE staining (FIG. 7) (NASH model mice; NASH model mice, 0.1 mg/kg): reduce inflammatory infiltration
lipid droplets in liver, oil red staining (FIG. 9) (NASH model mice; NASH model mice, 0.1 mg/kg): reduce the number and area of lipid droplets
liver mRNA expression level of Acta2 (FIG. 12) (NASH model mice; NASH model mice, 0.1 mg/kg): inhibit the increase
liver mRNA expression level of Ccl2 (FIG. 11) (NASH model mice; NASH model mice, 0.1 mg/kg): inhibit the increase
liver mRNA expression level of Ccl5 (FIG. 11) (NASH model mice; NASH model mice, 0.1 mg/kg): inhibit the increase
liver mRNA expression level of Cd11b (FIG. 11) (NASH model mice; NASH model mice, 0.1 mg/kg): inhibit the increase
liver mRNA expression level of Col1a1 (FIG. 12) (NASH model mice; NASH model mice, 0.1 mg/kg): inhibit the increase
liver mRNA expression level of Col3a1 (FIG. 12) (NASH model mice; NASH model mice, 0.1 mg/kg): inhibit the increase
liver mRNA expression level of Tgfb1 (FIG. 12) (NASH model mice; NASH model mice, 0.1 mg/kg): inhibit the increase
liver mRNA expression level of Tnf (FIG. 11) (NASH model mice; NASH model mice, 0.1 mg/kg): inhibit the increase
triglyceride content in the liver (FIG. 10) (NASH model mice; NASH model mice, 0.1 mg/kg): reduce triglyceride accumulation
serum ALT level (FIG. 6) (NASH model mice; [4]): down-regulated
serum AST level (FIG. 6) (NASH model mice; [4]): down-regulated
effect on reducing hepatic enzymes versus GFT505 (NASH model mice; [5]): slightly better effect on reducing the levels of hepatic enzymes than that of GFT505 at 10 mg/kg
effect on reducing hepatic triglycerides versus GFT505 (NASH model mice; [5]): superior to that of GFT505 at 10 mg/kg
effect on reducing lipid accumulation versus GFT505 (NASH model mice; [5]): superior to that of GFT505 at 10 mg/kg
therapeutic effect in NASH mice versus GFT505 (NASH model mice; [5]): equivalent therapeutic effect to that of GFT505 at a dose of 10 mg/kg
pharmacokinetic properties ([2]; in vivo): good pharmacokinetic properties
Half-life T1/2 ([2]; intravenous injection, 2 mpk): 4.82 ± 1.05 h
Peak concentration Cmax ([2]; intravenous injection, 2 mpk): 4306.67 ± 1546.13 ng/mL
AUC(0-inf) [2, 6]: 4250 ± 1240 ng·h/mL
Tmax [2, 6]: 0.08 h
AUC(0-inf) [2, 7]: 22300 ± 3550 ng·h/mL
bioavailability ([2]; male, SD, rat, plasma, 10 mg/kg, oral administration, 10 mpk, read-out: Bioavailability F (%)): 104.7 ± 0.17%
Tmax [2, 7]: 2.25 ± 3.25 h
Half-life T1/2 ([2]; oral administration, 10 mpk): 6.72 ± 1.39 h
Peak concentration Cmax ([2]; oral administration, 10 mpk): 2816.67 ± 1020.41 ng/mL
metabolic stability in human liver microsomes ([3]; human liver microsomes): very good metabolic stability
CLint scaled [3, 8]: 6.2 mL/min/kg
half-life [3, 8]: > 2 h
